Measurements as given in patent US20250041206A1, “Injectable Suspensions” (ASARINA PHARMA AB, priority 2017, published 2025).

Assay: Recovered dose from pre-filled syringes emptied through 27G needle after storage, not resuspended (gas chromatography)
Type: physicochemical
Conditions: suspension in pre-filled syringes during storage
Description: Filling weight was 0.5 g with the suspension having a density of about 0.95 g/mL.
The syringes were stored horisontally at 5° C., 25° C./60% RH and 40° C./75% RH, respectively, for up to twelve months. […] The syringes were taken directly from storage and not resuspended, mixed or shaken before ejection and assaying.

CC(=O)[C@H]1CC[C@H]2[C@@H]3CC[C@H]4C[C@@H](O)CC[C@]4(C)[C@H]3CC[C@]12C [3-beta-hydroxy-5-alpha-pregnan-20-one]
Primary particle size during storage: remained unchanged
